*1 amine or outer side, *2 acyl side, *3 side chain or, on linkers, in order; H or OH if unused. Where a SMILES comes first, the peptide text is derived from it. Side-chain parts run from the residue outwards. [ ]: non-standard residue; d: D form. The star is where a group is joined. C18 diacid = O=C(O)CCCCCCCCCCCCCCCCC(=O)*; C16 diacid = O=C(O)CCCCCCCCCCCCCCC(=O)*; γGlu = O=C(O)[C@H](CCC(=O)[*:2])N[*:1]; C12 diacid = O=C(O)CCCCCCCCCCC(=O)*; αMeL = CC(C)C[C@](C)(N)C(=O)O; Isovaleryl = CC(C)CC(=O)*; Api = NC1(C(=O)O)CCNCC1; Pentanoyl = CCCCC(=O)*; AEEA = NCCOCCOCC(=O)O
What was measured:
human CRF2a receptor = target: T1, human CRF2a receptor (Homo sapiens, UniProt Q13324); experiment: Activity at human CRF2a receptor, cAMP functional assay in TeloHEAC cells; format: cell-based; conditions: TeloHEAC cells stably expressing human CRF2a receptor, relative to urocortin 2 (100 nM = 100%)
T1 construct: expressed in transfected cells; host or cells: TeloHEAC cells
T1 sequence (Q13324 1-411): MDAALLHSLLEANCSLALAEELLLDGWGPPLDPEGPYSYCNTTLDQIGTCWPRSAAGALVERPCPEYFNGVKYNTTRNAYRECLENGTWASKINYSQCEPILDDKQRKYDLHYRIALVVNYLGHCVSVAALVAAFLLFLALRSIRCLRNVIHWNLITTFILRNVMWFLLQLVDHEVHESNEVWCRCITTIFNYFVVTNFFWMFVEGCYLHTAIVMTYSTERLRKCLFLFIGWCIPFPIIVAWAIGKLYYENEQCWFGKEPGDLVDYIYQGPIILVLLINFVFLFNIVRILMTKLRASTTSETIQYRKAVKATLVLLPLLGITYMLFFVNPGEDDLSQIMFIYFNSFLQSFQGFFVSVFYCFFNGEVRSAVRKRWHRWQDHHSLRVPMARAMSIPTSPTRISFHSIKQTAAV
Description: Agonism of compounds for human corticotropin-releasing factor 2a (CRF2a receptor) was determined by a functional assay measuring cAMP modulation upon treatment of TeloHEAC cells stably expressing human CRF2a receptor. Compounds were dissolved at 0.5 mM in 100% DMSO and serially diluted (1:2) in 100% DMSO for 16 dilutions. 20 nL of each dilution was then transferred to 384-well assay plate using an acoustic droplet ejection instrument. 5 μL of compound buffer (1×HBSS; 20 mM HEPES,) were then added to each well. Prior to use, frozen cells were thawed quickly at 37° C. and washed (5 min at 900 rpm) with 20 mL cell buffer (1×HBSS; 20 mM HEPES). Cells were resuspended in cell buffer added with 2 mM IBMX and adjusted to a cell density of […]. 5 μL cells (final dell density: 10000 cells/well) were dispensed in the compound-containing 384-well assay plate and incubated for 30 minutes 37° C. The cAMP level in treated cells was determined using the Cisbio 62AM4PEC kit according to manufacturer's instruction. Finally, plates were incubated for 1 h at room temperature before measuring the fluorescence ratio between 665/620 nm. The percent activity value (E %) was calculated by setting 100 nM of urocortin 2 (UCN2) as 100%. The in vitro potency of the compounds was quantified by determining the concentrations that caused 50% activation of maximal response (EC50) relative to urocortin 2.

CFR1R receptor = target: T2, CFR1R receptor (Homo sapiens, UniProt P34998); experiment: Activity at anti-target CFR1R receptor, cAMP assay in CRF1R-overexpression CHO-K1 cells; format: cell-based; conditions: 100% = Sauvagine at 100 nM; for EC50: cAMP
T2 construct: host or cells: CHO-K1 (clone 2)
T2 sequence (P34998 24-415): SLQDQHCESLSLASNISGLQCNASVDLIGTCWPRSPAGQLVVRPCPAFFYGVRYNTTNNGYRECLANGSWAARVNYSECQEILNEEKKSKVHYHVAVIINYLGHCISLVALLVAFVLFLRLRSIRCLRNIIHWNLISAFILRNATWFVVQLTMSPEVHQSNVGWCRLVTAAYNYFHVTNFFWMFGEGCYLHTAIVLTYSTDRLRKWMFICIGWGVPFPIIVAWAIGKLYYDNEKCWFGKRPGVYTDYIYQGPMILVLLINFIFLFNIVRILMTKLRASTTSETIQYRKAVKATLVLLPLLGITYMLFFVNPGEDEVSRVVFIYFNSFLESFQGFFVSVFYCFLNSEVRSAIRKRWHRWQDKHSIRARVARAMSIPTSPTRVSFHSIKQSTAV
Procedure, shortened: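 Uses frozen stocks of CHO-K1 clone 2 cells overexpressing human CRF1R, plated at 4000 cells/well final, with cAMP measured by the same protocol as the TeloHAEC line. Full-activation control: 100 nM Sauvagine.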

| EC50 (human CRF2a receptor) | Emax (% I) (CFR1R receptor) | EC50 (CFR1R receptor) | SMILES |
| --- | --- | --- | --- |
| 0.08 nM | 4 % I | > 250 nM | CC[C@H](C)[C@H](NC(C)=O)C(=O)N[C@H](C(=O)N[C@@H](CC(C)C)C(=O)N[C@@H](CO)C(=O)N[C@@H](CC(C)C)C(=O)N[C@@H](CC(=O)O)C(=O)N[C@@H](C(=O)N1CCC[C@H]1C(=O)N[C@H](C(=O)N[C@@H](CCCCN)C(=O)N[C@@H](CC(C)C)C(=O)N[C@@H](CCCCNC(=O)CC[C@H](NC(=O)CCCCCCCCCCCCCCCCC(=O)O)C(=O)O)C(=O)N[C@@H](CCCCN)C(=O)N[C@H](C(=O)N[C@@H](CC(C)C)C(=O)N[C@@H](CC(C)C)C(=O)N[C@@H](CCC(=O)O)C(=O)N[C@@H](CCC(N)=O)C(=O)N[C@@H](CCC(=O)O)C(=O)N[C@@H](CCCCN)C(=O)N[C@@H](CCC(N)=O)C(=O)N[C@@H](CCCCN)C(=O)N[C@@H](CCCCN)C(=O)N[C@@H](CCC(N)=O)C(=O)N[C@@H](CCCNC(=N)N)C(=O)N[C@@H](CCC(=O)O)C(=O)N[C@@H](CCC(N)=O)C(=O)N[C@@H](C)C(=O)N[C@@H](CCC(=O)O)C(=O)N[C@H](C(=O)N[C@@H](CC(N)=O)C(=O)N[C@@H](CCC(=O)O)C(=O)N[C@@H](CCC(N)=O)C(=O)N[C@H](C(=O)N[C@@H](CC(C)C)C(=O)N[C@@H](C)C(=O)N[C@@H](CCC(N)=O)C(=O)N[C@H](C(N)=O)C(C)C)[C@@H](C)CC)[C@@H](C)O)[C@@H](C)CC)[C@@H](C)CC)C(C)C)C(C)C [compound 130] (Ac-IVLSLD[dV]PIKLK([γGlu-C18 diacid])KILLEQEKQKKQREQAETNEQILAQV-NH2) |
| 0.8 nM | 6 % I | > 250 nM | CCCCC(=O)N[C@H](C(=O)N[C@@H](CC(C)C)C(=O)N[C@@H](CO)C(=O)N[C@@H](CC(C)C)C(=O)N[C@@H](CC(=O)O)C(=O)N[C@@H](C(=O)N1CCC[C@H]1C(=O)N[C@H](C(=O)N[C@@H](CCCCN)C(=O)N[C@@H](CC(C)C)C(=O)N[C@@H](CCCCNC(=O)CC[C@H](NC(=O)CCCCCCCCCCCCCCC(=O)O)C(=O)O)C(=O)N[C@@H](CCCCN)C(=O)N[C@H](C(=O)N[C@@H](CC(C)C)C(=O)N[C@@H](CC(C)C)C(=O)N[C@@H](CCC(=O)O)C(=O)N[C@@H](CCC(N)=O)C(=O)N[C@@H](CCC(=O)O)C(=O)N[C@@H](CCCCN)C(=O)N[C@@H](CCC(N)=O)C(=O)N[C@@H](CCCCN)C(=O)N[C@@H](CCCCN)C(=O)N[C@@H](CCC(N)=O)C(=O)N[C@@H](CCCNC(=N)N)C(=O)N[C@@H](CCC(=O)O)C(=O)N[C@@H](CCC(N)=O)C(=O)N[C@@H](C)C(=O)N[C@@H](CCC(=O)O)C(=O)N[C@H](C(=O)N[C@@H](CC(N)=O)C(=O)N[C@H](C(=O)N[C@@H](CCC(N)=O)C(=O)N[C@H](C(=O)N[C@@H](CC(C)C)C(=O)N[C@@H](C)C(=O)N[C@@H](CCC(N)=O)C(=O)N[C@H](C(N)=O)C(C)C)[C@@H](C)CC)C(C)C)[C@@H](C)O)[C@@H](C)CC)[C@@H](C)CC)C(C)C)C(C)C [compound 81] (Pentanoyl-VLSLD[dV]PIKLK([γGlu-C16 diacid])KILLEQEKQKKQREQAETNVQILAQV-NH2) |

Continued, molecule first:

| SMILES | EC50 (human CRF2a receptor) | Emax (% I) (CFR1R receptor) | EC50 (CFR1R receptor) |
| --- | --- | --- | --- |
| CC[C@H](C)[C@H](NC(=O)[C@H](CCC(N)=O)NC(=O)[C@H](CCCCNC(=O)CC[C@H](NC(=O)CCCCCCCCCCCCCCC(=O)O)C(=O)O)NC(=O)[C@H](CC(C)C)NC(=O)[C@H](CCCCN)NC(=O)[C@@H](NC(=O)[C@@H]1CCCN1C(=O)[C@H](NC(=O)[C@H](CC(=O)O)NC(=O)[C@H](CC(C)C)NC(=O)[C@H](CO)NC(=O)[C@H](CC(C)C)NC(=O)[C@@H](NC(=O)CC(C)C)C(C)C)C(C)C)[C@@H](C)CC)C(=O)N[C@@H](CC(C)C)C(=O)N[C@@H](CC(C)C)C(=O)N[C@@H](CCCCN)C(=O)N[C@@H](CCC(N)=O)C(=O)N[C@@H](CCC(=O)O)C(=O)N[C@@H](CCCNC(=N)N)C(=O)N[C@@H](CCC(N)=O)C(=O)N[C@@H](CCCCN)C(=O)N[C@@H](CCCCN)C(=O)N[C@@H](CCC(N)=O)C(=O)N[C@@H](CCCNC(=N)N)C(=O)N[C@@H](CCC(=O)O)C(=O)N[C@@H](CCC(N)=O)C(=O)N[C@@H](C)C(=O)N[C@@H](CCC(=O)O)C(=O)N[C@@H](CCCCN)C(=O)N[C@@H](CC(N)=O)C(=O)N[C@@H](CCCCN)C(=O)N[C@@H](CCC(N)=O)C(=O)N[C@H](C(=O)N[C@@H](CC(C)C)C(=O)N[C@@H](CCC(=O)O)C(=O)N[C@@H](CCC(N)=O)C(=O)N[C@H](C(N)=O)C(C)C)[C@@H](C)CC [compound 9] (Isovaleryl-VLSLD[dV]PIKLK([γGlu-C16 diacid])QILLKQERQKKQREQAEKNKQILEQV-NH2) | 0.16 nM | 77 % I |  |
| CC[C@H](C)[C@H](NC(C)=O)C(=O)N[C@H](C(=O)N[C@@H](CC(C)C)C(=O)N[C@@H](CO)C(=O)N[C@@H](CC(C)C)C(=O)N[C@@H](CC(=O)O)C(=O)N[C@@H](C(=O)N1CCC[C@H]1C(=O)N[C@H](C(=O)N[C@@H](CCCCN)C(=O)N[C@@H](CC(C)C)C(=O)N[C@@H](CCCCNC(=O)CC[C@H](NC(=O)CCCCCCCCCCC(=O)O)C(=O)O)C(=O)N[C@@H](CCCCN)C(=O)N[C@H](C(=O)N[C@@H](CC(C)C)C(=O)N[C@@H](CC(C)C)C(=O)N[C@@H](CCC(=O)O)C(=O)N[C@@H](CCC(N)=O)C(=O)N[C@@H](CCC(=O)O)C(=O)N[C@@H](CCCCN)C(=O)N[C@@H](CCC(N)=O)C(=O)N[C@@H](CCCCN)C(=O)N[C@@H](CCCCN)C(=O)N[C@@H](CCC(N)=O)C(=O)N[C@@H](CCCNC(=N)N)C(=O)N[C@@H](CCC(=O)O)C(=O)N[C@@H](CCC(N)=O)C(=O)N[C@@H](C)C(=O)N[C@@H](CCC(=O)O)C(=O)N[C@H](C(=O)N[C@@H](CC(N)=O)C(=O)NC1(C(=O)N[C@@H](CCC(N)=O)C(=O)N[C@H](C(=O)N[C@@H](CC(C)C)C(=O)N[C@@H](C)C(=O)N[C@@H](CCC(N)=O)C(=O)N[C@H](C(N)=O)C(C)C)[C@@H](C)CC)CCNCC1)[C@@H](C)O)[C@@H](C)CC)[C@@H](C)CC)C(C)C)C(C)C [compound 183] (Ac-IVLSLD[dV]PIKLK([γGlu-C12 diacid])KILLEQEKQKKQREQAETN[Api]QILAQV-NH2) | 2.47 nM | 11 % I | > 250 nM |
| CC[C@H](C)[C@H](NC(C)=O)C(=O)N[C@H](C(=O)N[C@@H](CC(C)C)C(=O)N[C@@H](CO)C(=O)N[C@@H](CC(C)C)C(=O)N[C@@H](CC(=O)O)C(=O)N[C@@H](C(=O)N1CCC[C@H]1C(=O)N[C@H](C(=O)N[C@@H](CCCCN)C(=O)N[C@@](C)(CC(C)C)C(=O)N[C@@H](CCCCNC(=O)COCCOCCNC(=O)COCCOCCNC(=O)CC[C@H](NC(=O)CCCCCCCCCCCCCCCCC(=O)O)C(=O)O)C(=O)N[C@@H](CCCCN)C(=O)N[C@H](C(=O)N[C@@H](CC(C)C)C(=O)N[C@@H](CC(C)C)C(=O)N[C@@H](CCC(=O)O)C(=O)N[C@@H](CCC(N)=O)C(=O)N[C@@H](CCC(=O)O)C(=O)N[C@@H](CCCCN)C(=O)N[C@@H](CCC(N)=O)C(=O)N[C@@H](CCCCN)C(=O)N[C@@H](CCCCN)C(=O)N[C@@H](CCC(N)=O)C(=O)N[C@@H](CCCNC(=N)N)C(=O)N[C@@H](CCC(=O)O)C(=O)N[C@@H](CCC(N)=O)C(=O)N[C@@H](C)C(=O)N[C@@H](CCC(=O)O)C(=O)N[C@H](C(=O)N[C@@H](CC(N)=O)C(=O)N[C@@H](C)C(=O)N[C@@H](CCC(N)=O)C(=O)N[C@H](C(=O)N[C@@H](CC(C)C)C(=O)N[C@@H](C)C(=O)N[C@@H](CCC(N)=O)C(=O)N[C@H](C(N)=O)C(C)C)[C@@H](C)CC)[C@@H](C)O)[C@@H](C)CC)[C@@H](C)CC)C(C)C)C(C)C [compound 112] (Ac-IVLSLD[dV]PIK[αMeL]K([AEEA-AEEA-γGlu-C18 diacid])KILLEQEKQKKQREQAETNAQILAQV-NH2) | 0.28 nM | 3 % I | > 250 nM |
